Experimental data as given in patent US5362856A, “Monooxygenase-like activity of heme proteins” (University of Toronto Innovations Foundation, priority 1993, dated 1994).

How the values were obtained:
hemoglobin-Fe(II) = assay: Effect of added agents on the sulfite/heme protein catalysed hydroxylation; format: biochemical; details: agents in reasonable quantities
[1] = 1 uM methemoglobin, 2.0 Mm anisole, 0.6 mM sodium sulfite, pH 7.0, 37 degrees C
Experimental: The cleavage of anisole is a more demanding test of monooxygenase activity--see Galaris et. al., Arch. Biochem. Biophys., 1990, 281, 163 n., and Lindsay Smith et.al., J. Chem. Soc. Chem. Commun., 1982, 55. […] The reaction mixtures were preincubated for 5 mins at 37 degrees C. and then terminated by addition of ice-cold 20% trichloroacetic acid (for formaldehyde determination), or by addition of ice-cold diethyl ether and subsequent extraction with diethyl ether (for GC detection of the product phenol).

[2] = Aniline p-hydroxylation catalysed by myoglobin with sodium sulfite; format: biochemical; details: 0.1 mL of 6 mM sodium sulphite, otherwise as Example 1
Experimental: An experiment was conducted exactly as described above in connection with Example 1, but using myoglobin Mb, 28 mg, MW18800, from Sigma, in place of Mt, and an amount of 0.1 mL of 6 mM sodium sulphite. Otherwise conditions and quantities were the same.

Molecule	effect on the catalytic hydroxylation process (hemoglobin-Fe(II))	further results
superoxide dismutase: enzyme added to test whether superoxide is involved in the hydroxylation	no effect	–
C[S+](C)[O-] [dimethylsulfoxide]	not subject to inhibition	–
OC[C@@H](O)[C@@H](O)[C@H](O)[C@H](O)CO [mannitol]	not subject to inhibition	–
methemoglobin	–	production of phenol and formaldehyde from anisole [1]: 140 pmol/min; kinetics of hydroxylation with respect to aniline (constant sodium sulfite concentration, 37 degrees C, pH 7.0): follows Michaelis-Menten kinetics; kinetic mechanism on variation of sodium sulfite concentration (sodium sulfite 0.05-0.40 mM, Lineweaver-Burk plots (FIG. 2)): ping-pong mechanism
CCO [ethanol]	not subject to inhibition	–
[C-]#[O+] [carbon monoxide]	inhibited	–
myoglobin (protein, UniProt P68082 2-154, looked up, myoglobin Mb, MW18800, from Sigma, used in place of Mt) Myoglobin: GLSDGEWQQVLNVWGKVEADIAGHGQEVLIRLFTGHPETLEKFDKFKHLKTEAEMKASEDLKKHGTVVLTALGGILKKKGHHEAELKPLAQSHATKHKIPIKYLEFISDAIIHVLHSKHPGDFGADAQGAMTKALELFRNDIAAKYKELGFQG	–	monooxygenase activity (aniline to p-aminophenol) compared with Mt of Example 1 [2]: essentially similar result
catalase: enzyme added to test whether peroxide is involved in the hydroxylation (protein, UniProt P00432 2-527, looked up) Catalase: ADNRDPASDQMKHWKEQRAAQKPDVLTTGGGNPVGDKLNSLTVGPRGPLLVQDVVFTDEMAHFDRERIPERVVHAKGAGAFGYFEVTHDITRYSKAKVFEHIGKRTPIAVRFSTVAGESGSADTVRDPRGFAVKFYTEDGNWDLVGNNTPIFFIRDALLFPSFIHSQKRNPQTHLKDPDMVWDFWSLRPESLHQVSFLFSDRGIPDGHRHMNGYGSHTFKLVNANGEAVYCKFHYKTDQGIKNLSVEDAARLAHEDPDYGLRDLFNAIATGNYPSWTLYIQVMTFSEAEIFPFNPFDLTKVWPHGDYPLIPVGKLVLNRNPVNYFAEVEQLAFDPSNMPPGIEPSPDKMLQGRLFAYPDTHRHRLGPNYLQIPVNCPYRARVANYQRDGPMCMMDNQGGAPNYYPNSFSAPEHQPSALEHRTHFSGDVQRFNSANDDNVTQVRTFYLKVLNEEQRKRLCENIAGHLKDAQLFIQKKAVKNFSDVHPEYGSRIQALLDKYNEEKPKNAVHTYVQHGSHLSAREKANL	no effect	–
